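Five compound concentrations were applied to cells in 96-well plates for 48 hours; endpoints were derived by simple linear interpolation of the resulting dose-response curve. GI50 is the concentration that inhibits growth by half. TGI: total growth inhibition.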
Assays:
Test in all cases: growth of human tumour cells (NCI), 48 h
A549 NSCLC = test system: A549 NSCLC
UACC-62 melanoma = test system: UACC-62 melanoma
SK-OV-3 ovarian = test system: SK-OV-3 ovarian
MALME-3M melanoma = test system: MALME-3M melanoma
RXF 393 renal = test system: RXF 393 renal
K-562 leukemia = test system: K-562 leukemia
SNB-75 CNS = test system: SNB-75 CNS
SK-MEL-5 melanoma = test system: SK-MEL-5 melanoma
OVCAR-4 ovarian = test system: OVCAR-4 ovarian
COLO 205 colon = test system: COLO 205 colon
NCI/ADR-RES ovarian = test system: NCI/ADR-RES ovarian
SK-MEL-28 melanoma = test system: SK-MEL-28 melanoma
NCI-H23 lung = test system: NCI-H23 lung
ACHN renal = test system: ACHN renal
RPMI-8226 leukemia = test system: RPMI-8226 leukemia
HL-60(TB) leukemia = test system: HL-60(TB) leukemia
HOP-62 NSCLC = test system: HOP-62 NSCLC
MOLT-4 leukemia = test system: MOLT-4 leukemia
OVCAR-5 ovarian = test system: OVCAR-5 ovarian
T-47D breast = test system: T-47D breast
U251 CNS = test system: U251 CNS
SF-268 CNS = test system: SF-268 CNS
NCI-H460 lung = test system: NCI-H460 lung
M14 melanoma = test system: M14 melanoma
SK-MEL-2 melanoma = test system: SK-MEL-2 melanoma
HOP-92 NSCLC = test system: HOP-92 NSCLC
CCRF-CEM leukemia = test system: CCRF-CEM leukemia
SW-620 colon = test system: SW-620 colon
MCF7 breast = test system: MCF7 breast
MDA-MB-435 = test system: MDA-MB-435
SR leukemia = test system: SR leukemia
IGROV1 ovarian = test system: IGROV1 ovarian
CAKI-1 renal = test system: CAKI-1 renal
HT29 colon = test system: HT29 colon
NCI-H226 lung = test system: NCI-H226 lung
OVCAR-8 ovarian = test system: OVCAR-8 ovarian
HS 578T breast = test system: HS 578T breast
UACC-257 melanoma = test system: UACC-257 melanoma
SN12C renal = test system: SN12C renal
LOX IMVI melanoma = test system: LOX IMVI melanoma
OVCAR-3 ovarian = test system: OVCAR-3 ovarian
DU-145 prostate = test system: DU-145 prostate
HCT-116 colon = test system: HCT-116 colon
UO-31 renal = test system: UO-31 renal
EKVX NSCLC = test system: EKVX NSCLC
PC-3 prostate = test system: PC-3 prostate
TK-10 renal = test system: TK-10 renal
SF-295 CNS = test system: SF-295 CNS
SNB-19 CNS = test system: SNB-19 CNS
MDA-MB-231 breast = test system: MDA-MB-231 breast
HCC-2998 colon = test system: HCC-2998 colon
786-0 renal = test system: 786-0 renal
HCT-15 colon = test system: HCT-15 colon
A498 renal = test system: A498 renal
KM12 colon = test system: KM12 colon
NCI-H522 lung = test system: NCI-H522 lung
SF-539 CNS = test system: SF-539 CNS

## CCN1C(=O)CS/C1=N/NC(=O)C(O)(c1ccccc1)C1C=CC=CC1 (stereo unspecified)
A549 NSCLC
  TGI: > 10 µM
UACC-62 melanoma
  TGI: > 10 µM
SK-OV-3 ovarian
  TGI: > 10 µM
MALME-3M melanoma
  TGI: > 10 µM
RXF 393 renal
  TGI: > 10 µM
K-562 leukemia
  TGI: > 10 µM
SNB-75 CNS
  TGI: > 10 µM
SK-MEL-5 melanoma
  TGI: > 10 µM
OVCAR-4 ovarian
  TGI: > 10 µM
COLO 205 colon
  TGI: > 10 µM
NCI/ADR-RES ovarian
  TGI: > 10 µM
SK-MEL-28 melanoma
  TGI: > 10 µM
NCI-H23 lung
  TGI: > 10 µM
ACHN renal
  TGI: > 10 µM
RPMI-8226 leukemia
  TGI: > 10 µM
HL-60(TB) leukemia
  TGI: > 10 µM
HOP-62 NSCLC
  TGI: > 10 µM
MOLT-4 leukemia
  TGI: > 10 µM
OVCAR-5 ovarian
  TGI: > 10 µM
T-47D breast
  TGI: > 10 µM
U251 CNS
  TGI: > 10 µM
SF-268 CNS
  TGI: > 10 µM
NCI-H460 lung
  TGI: > 10 µM
M14 melanoma
  TGI: > 10 µM
SK-MEL-2 melanoma
  TGI: > 10 µM
HOP-92 NSCLC
  TGI: > 10 µM
CCRF-CEM leukemia
  TGI: > 10 µM
SW-620 colon
  TGI: > 10 µM
MCF7 breast
  TGI: > 10 µM
MDA-MB-435
  TGI: > 10 µM
SR leukemia
  TGI: > 10 µM
IGROV1 ovarian
  TGI: > 10 µM
CAKI-1 renal
  TGI: > 10 µM

## C/C(=N\n1c(N)c(C#N)c(-c2ccc(Cl)cc2)c(C#N)c1=O)c1ccncc1
HT29 colon
  GI50: > 100 µM
  TGI: > 100 µM
NCI-H226 lung
  GI50: 18.5 µM
  TGI: 54.5 µM
OVCAR-8 ovarian
  GI50: 2.95 µM
  TGI: 12.4 µM
HS 578T breast
  GI50: 6.4 µM
  TGI: 75.8 µM
A549 NSCLC
  GI50: 7.58 µM
  TGI: 65.4 µM
UACC-62 melanoma
  GI50: 36.4 µM
  TGI: > 100 µM
SK-OV-3 ovarian
  GI50: 10.1 µM
  TGI: 64.6 µM
UACC-257 melanoma
  GI50: 13.5 µM
  TGI: 95.3 µM
MALME-3M melanoma
  GI50: 7.54 µM
  TGI: > 100 µM
K-562 leukemia
  GI50: > 100 µM
  TGI: > 100 µM
SNB-75 CNS
  GI50: 6.11 µM
  TGI: 26.6 µM
SK-MEL-5 melanoma
  GI50: 21.8 µM
  TGI: > 100 µM
OVCAR-4 ovarian
  GI50: 11.1 µM
  TGI: 43.6 µM
SN12C renal
  GI50: 9.88 µM
  TGI: 41.1 µM
COLO 205 colon
  GI50: > 100 µM
  TGI: > 100 µM
NCI/ADR-RES ovarian
  GI50: 5.28 µM
  TGI: 31.3 µM
LOX IMVI melanoma
  GI50: 35.4 µM
  TGI: > 100 µM
SK-MEL-28 melanoma
  GI50: 56.8 µM
  TGI: > 100 µM
NCI-H23 lung
  GI50: 11 µM
  TGI: 45.7 µM
ACHN renal
  GI50: 20.9 µM
  TGI: 49.5 µM
OVCAR-3 ovarian
  GI50: 3.7 µM
  TGI: 21.5 µM
DU-145 prostate
  GI50: 11.1 µM
  TGI: 44.7 µM
HCT-116 colon
  GI50: 11.9 µM
  TGI: 31.7 µM
UO-31 renal
  GI50: 7.33 µM
  TGI: > 100 µM
EKVX NSCLC
  GI50: 6.13 µM
  TGI: > 100 µM
RPMI-8226 leukemia
  GI50: 7.96 µM
  TGI: 69.7 µM
PC-3 prostate
  GI50: 2.41 µM
  TGI: 16.8 µM
TK-10 renal
  GI50: 6.04 µM
  TGI: 38.9 µM
SF-295 CNS
  GI50: 4.65 µM
  TGI: 86 µM
HOP-62 NSCLC
  GI50: 16.9 µM
  TGI: 48.8 µM
MOLT-4 leukemia
  GI50: > 100 µM
  TGI: > 100 µM
OVCAR-5 ovarian
  GI50: 60.4 µM
  TGI: > 100 µM
T-47D breast
  GI50: 7.81 µM
  TGI: 85.3 µM
U251 CNS
  GI50: 19.6 µM
  TGI: 44.6 µM
SF-268 CNS
  GI50: 9.83 µM
  TGI: 61.4 µM
NCI-H460 lung
  GI50: 22.4 µM
  TGI: 82.5 µM
M14 melanoma
  GI50: > 100 µM
  TGI: > 100 µM
SK-MEL-2 melanoma
  GI50: 27.8 µM
  TGI: > 100 µM
SNB-19 CNS
  GI50: 10.6 µM
  TGI: > 100 µM
HOP-92 NSCLC
  GI50: 0.61 µM
  TGI: 4.17 µM
CCRF-CEM leukemia
  GI50: > 100 µM
  TGI: > 100 µM
SW-620 colon
  GI50: 31.5 µM
  TGI: > 100 µM
MDA-MB-231 breast
  GI50: 12.6 µM
  TGI: 44.2 µM
HCC-2998 colon
  GI50: > 100 µM
  TGI: > 100 µM
MCF7 breast
  GI50: 5.7 µM
  TGI: 93.9 µM
786-0 renal
  GI50: 6.95 µM
  TGI: 34 µM
SR leukemia
  GI50: 3.3 µM
  TGI: > 100 µM
IGROV1 ovarian
  GI50: 5.02 µM
  TGI: > 100 µM
HCT-15 colon
  GI50: 58.2 µM
  TGI: > 100 µM
CAKI-1 renal
  GI50: 16.7 µM
  TGI: > 100 µM

## Nc1ncc(/C=N/O)c(NCC2(CO)CC(CCc3ccccc3)C2)n1 (stereo unspecified)
HT29 colon
  TGI: 9.07 µM
A498 renal
  TGI: 29.1 µM
NCI-H226 lung
  TGI: 40.1 µM
OVCAR-8 ovarian
  TGI: 24.1 µM
HS 578T breast
  TGI: > 100 µM
A549 NSCLC
  TGI: 25.6 µM
UACC-62 melanoma
  TGI: 33.1 µM
UACC-257 melanoma
  TGI: 24.4 µM
MALME-3M melanoma
  TGI: 25.3 µM
RXF 393 renal
  TGI: 29 µM
K-562 leukemia
  TGI: 31.7 µM
SNB-75 CNS
  TGI: 30.8 µM
SK-MEL-5 melanoma
  TGI: 11.9 µM
OVCAR-4 ovarian
  TGI: 48.5 µM
SN12C renal
  TGI: 33 µM
COLO 205 colon
  TGI: 27.2 µM
NCI/ADR-RES ovarian
  TGI: 70.6 µM
LOX IMVI melanoma
  TGI: 22.3 µM
OVCAR-3 ovarian
  TGI: 30.7 µM
DU-145 prostate
  TGI: 28.8 µM
HCT-116 colon
  TGI: 18 µM
UO-31 renal
  TGI: 26.9 µM
RPMI-8226 leukemia
  TGI: 42.9 µM
PC-3 prostate
  TGI: 26.8 µM
KM12 colon
  TGI: 31.6 µM
SF-295 CNS
  TGI: 22.7 µM
HL-60(TB) leukemia
  TGI: 28 µM
HOP-62 NSCLC
  TGI: 24.8 µM
NCI-H522 lung
  TGI: 20.9 µM
MOLT-4 leukemia
  TGI: 23 µM
OVCAR-5 ovarian
  TGI: 44.1 µM
T-47D breast
  TGI: 17.2 µM
U251 CNS
  TGI: 26.4 µM
SF-268 CNS
  TGI: > 100 µM
NCI-H460 lung
  TGI: 22.1 µM
SK-MEL-2 melanoma
  TGI: 39.2 µM
HOP-92 NSCLC
  TGI: 30.2 µM
CCRF-CEM leukemia
  TGI: 50.2 µM
SF-539 CNS
  TGI: 29.6 µM
MDA-MB-231 breast
  TGI: 21.8 µM
HCC-2998 colon
  TGI: 30.4 µM
MCF7 breast
  TGI: 22.2 µM
MDA-MB-435
  TGI: 23.8 µM
786-0 renal
  TGI: 37.2 µM
SR leukemia
  TGI: > 100 µM
IGROV1 ovarian
  TGI: 31.2 µM
HCT-15 colon
  TGI: 29.9 µM
CAKI-1 renal
  TGI: > 100 µM

Source: PubChem BioAssay (NCI)
